Source: PubChem BioAssay AID330 (DTP/NCI, 2004)
Several values for one entry are separate records, joined by “and”; a condition that tells them apart may be missing. Equal entries are not always repeated. Toxic doses and inconclusive results are not listed. Rule for the calls: active = survival T/C of 150% or more; inactive = T/C below 125% in these data.

Tested on: P388 leukemia ip, CD2F1 mice, survival T/C
Experiment: NCI In Vivo Anticancer Drug Screen. Data for tumor model P388 Leukemia (intraperitoneal) in CD2F1 (CDF1) mice
Conditions: endpoint: median survival time, higher = longer survival
Summary of the method: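 Mice carrying the transplanted tumor received test compound or vehicle. Survival was recorded in each group, and the value is the treated-group measurement divided by that of the vehicle-treated control group.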

[1] = dose: 50.0 mg/kg/injection, schedule: Q01DX009 (ip), vehicle: saline
[2] = dose: 100.0 mg/kg/injection, schedule: Q01DX009 (ip), vehicle: saline
[3] = dose: 200.0 mg/kg/injection, schedule: Q01DX009 (ip), vehicle: saline
[4] = dose: 12.5 mg/kg/injection, schedule: Q01DX009 (ip), vehicle: other
[5] = dose: 25.0 mg/kg/injection, schedule: Q01DX009 (ip), vehicle: other
[6] = dose: 60.0 mg/kg/injection, schedule: Q01DX005 (ip), vehicle: saline with Tween-80
[7] = dose: 120.0 mg/kg/injection, schedule: Q01DX005 (ip), vehicle: saline with Tween-80
[8] = dose: 50.0 mg/kg/injection, schedule: Q01DX005 (ip), vehicle: saline with Tween-80
[9] = dose: 100.0 mg/kg/injection, schedule: Q01DX005 (ip), vehicle: saline with Tween-80
[10] = dose: 200.0 mg/kg/injection, schedule: Q01DX005 (ip), vehicle: saline with Tween-80
[11] = dose: 100.0 mg/kg/injection, schedule: Q04DX003 (ip), vehicle: saline with Tween-80
[12] = dose: 200.0 mg/kg/injection, schedule: Q04DX003 (ip), vehicle: saline with Tween-80
[13] = dose: 400.0 mg/kg/injection, schedule: Q04DX003 (ip), vehicle: saline with Tween-80
[14] = dose: 50.0 mg/kg/injection, schedule: Q01DX009 (ip), vehicle: saline with Tween-80
[15] = dose: 100.0 mg/kg/injection, schedule: Q01DX009 (ip), vehicle: saline with Tween-80
[16] = dose: 200.0 mg/kg/injection, schedule: Q01DX009 (ip), vehicle: saline with Tween-80
[17] = dose: 240.0 mg/kg/injection, schedule: Q01DX005 (ip), vehicle: saline with Tween-80

Measured: T/C

CCOC(=O)C(Cc1c[nH]c2ccccc12)NCCN (configuration not stated)
inactive: [1] 99 % of control | [2] 108 % of control | [3] 86 % of control

CC(C)(C)[Si]1(C(C)(C)C)N([Si](C)(C)C)N1[Si](C)(C)C (configuration not stated)
inactive: dose: 60.0 mg/kg/injection, schedule: Q01DX005 (ip), vehicle: saline 106 % of control | dose: 120.0 mg/kg/injection, schedule: Q01DX005 (ip), vehicle: saline 100 % of control | dose: 240.0 mg/kg/injection, schedule: Q01DX005 (ip), vehicle: saline 105 % of control

Cc1ccc(S(=O)(=O)Nc2nnc(NS(=O)(=O)c3ccc(C)cc3)nn2)cc1
inactive: [4] 96 % of control | [5] 96 % of control | dose: 50.0 mg/kg/injection, schedule: Q01DX009 (ip), vehicle: other 96 % of control | dose: 100.0 mg/kg/injection, schedule: Q01DX009 (ip), vehicle: other 91 % of control | dose: 200.0 mg/kg/injection, schedule: Q01DX009 (ip), vehicle: other 94 % of control

CC(C)CCCCCCCCCCCCC(=O)NCC(=O)NC1C(O)C(O)C(Nc2ncnc3nc[nH]c23)C(O)C1O (configuration not stated)
inactive: dose: 0.5 mg/kg/injection, schedule: Q01DX009 (ip), vehicle: other 105 % of control | dose: 1.0 mg/kg/injection, schedule: Q01DX009 (ip), vehicle: other 101 % of control | dose: 2.0 mg/kg/injection, schedule: Q01DX009 (ip), vehicle: other 91 % of control | dose: 4.0 mg/kg/injection, schedule: Q01DX009 (ip), vehicle: other 91 % of control | dose: 8.0 mg/kg/injection, schedule: Q01DX009 (ip), vehicle: other 101 % of control | dose: 16.0 mg/kg/injection, schedule: Q01DX009 (ip), vehicle: other 95 % of control | dose: 32.0 mg/kg/injection, schedule: Q01DX009 (ip), vehicle: other 90 % of control

CCOC(=O)c1nnc2cc(-c3ccccc3)nn2c1-c1ccccc1
inactive: [6] 101 % of control | [7] 95 % of control

CCOC(=O)C1=C(C)NC(C)=C(C(=O)OCC)C1(C)C
inactive: [8] 104 % of control | [9] 100 % of control | [10] 100 % of control

c1ccc2c(-c3nc4ccccc4c4ccccc34)nccc2c1
inactive: dose: 100.0 mg/kg/injection, schedule: Q01DX001 (ip), vehicle: saline with Tween-80 92 % of control | dose: 200.0 mg/kg/injection, schedule: Q01DX001 (ip), vehicle: saline with Tween-80 92 % of control | dose: 400.0 mg/kg/injection, schedule: Q01DX001 (ip), vehicle: saline with Tween-80 99 % of control

OCc1cc(-c2ccc(Cl)cc2)nc2c(C(F)(F)F)cccc12
inactive: [11] 100 % of control | [12] 111 % of control | [13] 92 % of control

O=C(c1ccccc1)N1C2C=C(c3ccccc3)CC1CC2 (configuration not stated)
inactive: dose: 100.0 mg/kg/injection, schedule: Q04DX003 (ip), vehicle: Klucel (hydroxypropylcellulose) (HPC) 111 % of control | dose: 200.0 mg/kg/injection, schedule: Q04DX003 (ip), vehicle: Klucel (hydroxypropylcellulose) (HPC) 97 % of control | dose: 400.0 mg/kg/injection, schedule: Q04DX003 (ip), vehicle: Klucel (hydroxypropylcellulose) (HPC) 94 % of control

N#CNC(=S)S
inactive: dose: 100.0 mg/kg/injection, schedule: Q04DX002 (ip), vehicle: saline 105 % of control | dose: 200.0 mg/kg/injection, schedule: Q04DX002 (ip), vehicle: saline 109 % of control | dose: 400.0 mg/kg/injection, schedule: Q04DX002 (ip), vehicle: saline 105 % of control

CCOc1ccccc1C=C1c2ccccc2C(=O)c2ccccc21
inactive: [14] 96 % of control | [15] 92 % of control | [16] 91 % of control

O=C(O)c1ccc(O)c(O)c1
inactive: [1] 104 % of control and 111 % of control | [2] 100 % of control and 103 % of control | [3] 103 % of control and 98 % of control | dose: 400.0 mg/kg/injection, schedule: Q01DX009 (ip), vehicle: saline 103 % of control and 118 % of control | dose: 600.0 mg/kg/injection, schedule: Q01DX009 (ip), vehicle: saline 100 % of control

COc1cc2c(c(C3C(=O)N(C)c4ccc(Br)cc43)c1OC)OCO2 (configuration not stated)
inactive: [6] 95 % of control | [7] 91 % of control | [17] 98 % of control

COc1cc2c(c(OC)c1OC)-c1ccc(=O)c(OC)cc1[C@@H](N(C)C=O)CC2
inactive: dose: 2.5 mg/kg/injection, schedule: Q01DX009 (ip), vehicle: Klucel (hydroxypropylcellulose) (HPC) 105 % of control | dose: 5.0 mg/kg/injection, schedule: Q01DX009 (ip), vehicle: Klucel (hydroxypropylcellulose) (HPC) 112 % of control | dose: 10.0 mg/kg/injection, schedule: Q01DX009 (ip), vehicle: Klucel (hydroxypropylcellulose) (HPC) 100 % of control | dose: 20.0 mg/kg/injection, schedule: Q01DX009 (ip), vehicle: Klucel (hydroxypropylcellulose) (HPC) 114 % of control | dose: 40.0 mg/kg/injection, schedule: Q01DX009 (ip), vehicle: Klucel (hydroxypropylcellulose) (HPC) 114 % of control

C=CC(C)(C)[N+](C)(C)C
inactive: dose: 12.5 mg/kg/injection, schedule: Q01DX009 (ip), vehicle: saline 99 % of control | dose: 25.0 mg/kg/injection, schedule: Q01DX009 (ip), vehicle: saline 102 % of control

COc1cccc2c1C(=O)c1c(O)c3c(c(O)c1C2=O)CC(O)(C1(O)CSC(C)=N1)CC3O (configuration not stated)
inactive: dose: 1.56 mg/kg/injection, schedule: Q01DX009 (ip), vehicle: other 102 % of control | dose: 3.13 mg/kg/injection, schedule: Q01DX009 (ip), vehicle: other 104 % of control | dose: 6.25 mg/kg/injection, schedule: Q01DX009 (ip), vehicle: other 104 % of control | [4] 105 % of control | [5] 98 % of control | dose: 25.0 mg/kg/injection, schedule: Q01DX009 (ip), vehicle: water 101 % of control | dose: 50.0 mg/kg/injection, schedule: Q01DX009 (ip), vehicle: water 101 % of control | dose: 100.0 mg/kg/injection, schedule: Q01DX009 (ip), vehicle: water 121 % of control

c1nc2c(o1)CCCC2
inactive: [6] 104 % of control | [7] 101 % of control | [17] 95 % of control

ClC1c2ccccc2Cc2cccnc21 (configuration not stated)
inactive: [14] 102 % of control | [15] 101 % of control | [16] 95 % of control

COc1ccc(-c2cscc2N)cc1
inactive: dose: 60.0 mg/kg/injection, schedule: Q01DX005 (ip), vehicle: Klucel (hydroxypropylcellulose) (HPC) 114 % of control | dose: 120.0 mg/kg/injection, schedule: Q01DX005 (ip), vehicle: Klucel (hydroxypropylcellulose) (HPC) 118 % of control | dose: 240.0 mg/kg/injection, schedule: Q01DX005 (ip), vehicle: Klucel (hydroxypropylcellulose) (HPC) 97 % of control

CC(CCl)OC(=O)Nc1cccc(C(F)(F)F)c1 (configuration not stated)
inactive: [6] 106 % of control | [7] 102 % of control | [17] 107 % of control

CCOC(=O)/C=C/C(=O)N1CCN(C(=O)/C=C/C(=O)OCC)C(C)C1 (configuration not stated)
inactive: dose: 50.0 mg/kg/injection, schedule: Q01DX005 (ip), vehicle: Klucel (hydroxypropylcellulose) (HPC) 113 % of control | dose: 90.0 mg/kg/injection, schedule: Q01DX005 (ip), vehicle: Klucel (hydroxypropylcellulose) (HPC) 108 % of control | dose: 100.0 mg/kg/injection, schedule: Q01DX005 (ip), vehicle: Klucel (hydroxypropylcellulose) (HPC) 116 % of control | dose: 133.0 mg/kg/injection, schedule: Q01DX005 (ip), vehicle: Klucel (hydroxypropylcellulose) (HPC) 112 % of control

CCOCC(=O)O
inactive: [1] 95 % of control | [2] 92 % of control | [3] 91 % of control

COc1cc2c(cc1O)C(CSC)Cc1cc(OC)c(OC)cc1N(C)CCC2 (configuration not stated)
inactive: [11] 93 % of control | [12] 87 % of control | [13] 100 % of control

C=CCNC(=S)Nc1ccccn1
inactive: [8] 104 % of control | [9] 100 % of control | [10] 102 % of control

CCOc1ccc(NS(=O)(=O)c2ccc(F)cc2)cc1
inactive: [6] 99 % of control | [7] 88 % of control | [17] 95 % of control

CCOC(=O)C(C(=O)OCC)=C1C(=O)Nc2ccccc21
inactive: dose: 100.0 mg/kg/injection, schedule: Q04DX002 (ip), vehicle: Klucel (hydroxypropylcellulose) (HPC) 106 % of control | dose: 200.0 mg/kg/injection, schedule: Q04DX002 (ip), vehicle: Klucel (hydroxypropylcellulose) (HPC) 106 % of control | dose: 400.0 mg/kg/injection, schedule: Q04DX002 (ip), vehicle: Klucel (hydroxypropylcellulose) (HPC) 109 % of control
